Like-named read-outs stand apart in the source and are kept apart here. Marks after values point to notes of the source that are not given here.
Experiment: Plasma levels of isoxicam and bioavailability parameters after a single oral dose to beagle dogs
Type: in vivo
Settings: for Plasma levels of isoxicam / Plasma levels of isoxicam, Mean: 100 mg/dog oral (isoxicam equivalents); for AUC(0-inf) / half-life / Cmax / Tmax: dog, in vivo, po, 100 mg; for Tmax: read-out: Tmax; for Plasma levels of isoxicam, Mean: mean of dogs
Description: The range for the individual animals was 51.4 to 63.0 µg/ml with three animals having a peak time of two hours and the final animal at eight hours. These plasma levels were considerably higher when compared to micronized isoxicam. […] Peak plasma concentrations for individual animals ranged from […] between three and six hours postdose.
Areas under the plasma concentrations versus time curve (AUC^0-∞) were calculated using the trapezoidal rule and extrapolated to infinity with the appropriate elimination rate constants.

[1] = Mean of four dogs, oral 100 mg (free acid equivalents)
[2] = dog 1930, oral 100 mg (free acid equivalents)
[3] = dog 1942, oral 100 mg (free acid equivalents)
[4] = dog 117668, oral 100 mg (free acid equivalents)
[5] = dog 120064, oral 100 mg (free acid equivalents)

SMILES: Cc1cc(NC(=O)C2=C(O)c3ccccc3S(=O)(=O)N2C)no1 [arginine isoxicamate, L-arginine isoxicamate]
- Plasma levels of isoxicam (dog 1930, time 0.5 h postdose): 29.6 µg/mL
- Plasma levels of isoxicam (dog 1930, time 1.0 h postdose): 43.4 µg/mL
- Plasma levels of isoxicam (dog 1930, time 2.0 h postdose): 51.4 µg/mL
- Plasma levels of isoxicam (dog 1930, time 3.0 h postdose): 47.5 µg/mL
- Plasma levels of isoxicam (dog 1930, time 4.0 h postdose): 48.9 µg/mL
- Plasma levels of isoxicam (dog 1930, time 6.0 h postdose): 48.3 µg/mL
- Plasma levels of isoxicam (dog 1930, time 8.0 h postdose): 42.6 µg/mL
- Plasma levels of isoxicam (dog 1930, time 12.0 h postdose): 37.8 µg/mL
- Plasma levels of isoxicam (dog 1930, time 24.0 h postdose): 32.8 µg/mL
- Plasma levels of isoxicam (dog 1930, time 32.0 h postdose): 25.2 µg/mL
- Plasma levels of isoxicam (dog 1930, time 48.0 h postdose): 25.0 µg/mL
- Plasma levels of isoxicam (dog 1930, time 72.0 h postdose): 14.6 µg/mL
- Plasma levels of isoxicam (dog 1930, time 96.0 h postdose): 10.2 µg/mL
- Plasma levels of isoxicam (dog 1930, time 192.0 h postdose): 1.56 µg/mL
- Plasma levels of isoxicam (dog 1930, time 240.0 h postdose): 0.89 µg/mL
- Plasma levels of isoxicam (dog 1942, time 0.5 h postdose): 7.99 µg/mL
- Plasma levels of isoxicam (dog 1942, time 1.0 h postdose): 28.1 µg/mL
- Plasma levels of isoxicam (dog 1942, time 2.0 h postdose): 58.6 µg/mL
- Plasma levels of isoxicam (dog 1942, time 3.0 h postdose): 51.7 µg/mL
- Plasma levels of isoxicam (dog 1942, time 4.0 h postdose): 53.9 µg/mL
- Plasma levels of isoxicam (dog 1942, time 6.0 h postdose): 50.5 µg/mL
- Plasma levels of isoxicam (dog 1942, time 8.0 h postdose): 42.2 µg/mL
- Plasma levels of isoxicam (dog 1942, time 12.0 h postdose): 39.4 µg/mL
- Plasma levels of isoxicam (dog 1942, time 24.0 h postdose): 35.6 µg/mL
- Plasma levels of isoxicam (dog 1942, time 32.0 h postdose): 25.7 µg/mL
- Plasma levels of isoxicam (dog 1942, time 48.0 h postdose): 25.5 µg/mL
- Plasma levels of isoxicam (dog 1942, time 72.0 h postdose): 17.1 µg/mL
- Plasma levels of isoxicam (dog 1942, time 96.0 h postdose): 8.96 µg/mL
- Plasma levels of isoxicam (dog 1942, time 153.5 h postdose): 2.34 µg/mL
- Plasma levels of isoxicam (dog 1942, time 192.0 h postdose): 1.28 µg/mL
- Plasma levels of isoxicam (dog 1942, time 240.0 h postdose): 0.60 µg/mL
- Plasma levels of isoxicam (dog 117668, row 192.0, actual time=193 hours): 0.85* µg/ml
- Plasma levels of isoxicam (dog 117668, time 0.5 h postdose): 22.8 µg/mL
- Plasma levels of isoxicam (dog 117668, time 1.0 h postdose): 42.6 µg/mL
- Plasma levels of isoxicam (dog 117668, time 3.0 h postdose): 55.1 µg/mL
- Plasma levels of isoxicam (dog 117668, time 4.0 h postdose): 59.3 µg/mL
- Plasma levels of isoxicam (dog 117668, time 6.0 h postdose): 50.2 µg/mL
- Plasma levels of isoxicam (dog 117668, time 8.0 h postdose): 63.0 µg/mL
- Plasma levels of isoxicam (dog 117668, time 24.0 h postdose): 30.5 µg/mL
- Plasma levels of isoxicam (dog 117668, time 32.0 h postdose): 29.6 µg/mL
- Plasma levels of isoxicam (dog 117668, time 48.0 h postdose): 18.6 µg/mL
- Plasma levels of isoxicam (dog 117668, time 72.0 h postdose): 10.7 µg/mL
- Plasma levels of isoxicam (dog 117668, time 96.0 h postdose): 5.10 µg/mL
- Plasma levels of isoxicam (dog 117668, time 153.5 h postdose): 1.27 µg/mL
- Plasma levels of isoxicam (dog 117668, time 240.0 h postdose): 0.51 µg/mL
- Plasma levels of isoxicam (dog 120064, row 192.0, actual time=193 hours): 2.17* µg/ml
- Plasma levels of isoxicam (dog 120064, time 0.5 h postdose): 1.11 µg/mL
- Plasma levels of isoxicam (dog 120064, time 1.0 h postdose): 15.5 µg/mL
- Plasma levels of isoxicam (dog 120064, time 2.0 h postdose): 51.8 µg/mL
- Plasma levels of isoxicam (dog 120064, time 3.0 h postdose): 46.3 µg/mL
- Plasma levels of isoxicam (dog 120064, time 4.0 h postdose): 50.5 µg/mL
- Plasma levels of isoxicam (dog 120064, time 6.0 h postdose): 49.6 µg/mL
- Plasma levels of isoxicam (dog 120064, time 8.0 h postdose): 42.0 µg/mL
- Plasma levels of isoxicam (dog 120064, time 24.0 h postdose): 31.3 µg/mL
- Plasma levels of isoxicam (dog 120064, time 32.0 h postdose): 34.8 µg/mL
- Plasma levels of isoxicam (dog 120064, time 48.0 h postdose): 21.5 µg/mL
- Plasma levels of isoxicam (dog 120064, time 72.0 h postdose): 17.6 µg/mL
- Plasma levels of isoxicam (dog 120064, time 96.0 h postdose): 9.39 µg/mL
- Plasma levels of isoxicam (dog 120064, time 153.5 h postdose): 3.52 µg/mL
- Plasma levels of isoxicam (dog 120064, time 240.0 h postdose): 1.26 µg/mL
- AUC(0-inf) [1]: 2840 µg·h/mL
- half-life (Mean of four dogs, oral 100 mg (free acid equivalents), elimination half-life, read-out: Half-life (converted)): 36.2 h
- Cmax (Mean of four dogs, oral 100 mg (free acid equivalents), read-out: Cmax): 55300 ng/mL
- Tmax [1]: 3 h
- AUC(0-inf) [2]: 2910 µg·h/mL
- half-life (dog 1930, oral 100 mg (free acid equivalents), elimination half-life, read-out: Half-life (converted)): 38.8 h
- Cmax (dog 1930, oral 100 mg (free acid equivalents), read-out: Cmax): 51400 ng/mL
- Tmax [2]: 2 h
- AUC(0-inf) [3]: 2920 µg·h/mL
- half-life (dog 1942, oral 100 mg (free acid equivalents), elimination half-life, read-out: Half-life (converted)): 34.4 h
- Cmax (dog 1942, oral 100 mg (free acid equivalents), read-out: Cmax): 58600 ng/mL
- Tmax [3]: 2 h
- AUC(0-inf) [4]: 2590 µg·h/mL
- half-life (dog 117668, oral 100 mg (free acid equivalents), elimination half-life, read-out: Half-life (converted)): 27 h
- Cmax (dog 117668, oral 100 mg (free acid equivalents), read-out: Cmax): 59300 ng/mL
- Tmax [4]: 6 h
- AUC(0-inf) [5]: 2950 µg·h/mL
- half-life (dog 120064, oral 100 mg (free acid equivalents), elimination half-life, read-out: Half-life (converted)): 44.8 h
- Cmax (dog 120064, oral 100 mg (free acid equivalents), read-out: Cmax): 51800 ng/mL
- Tmax [5]: 2 h
- Cmax (four dogs, 100 mg oral, read-out: Mean Cmax): 56200 ± 5600 ng/mL
- half-life (four dogs, 100 mg oral, read-out: Mean half-lives (elimination, linear regression of semilogarithmic data) (converted)): 36.2 ± 7.5 h
- mean AUC^0-∞ (four dogs, 100 mg oral, trapezoidal rule extrapolated to infinity): 2840 ± 170 µg·h/mL
- Plasma levels of isoxicam, Mean (time 0.5 h postdose): 15400 ng/mL
- Plasma levels of isoxicam, Mean (time 1.0 h postdose): 32400 ng/mL
- Plasma levels of isoxicam, Mean (time 2.0 h postdose): 53900 ng/mL
- Plasma levels of isoxicam, Mean (time 3.0 h postdose): 50200 ng/mL
- Plasma levels of isoxicam, Mean (time 4.0 h postdose): 53200 ng/mL
- Plasma levels of isoxicam, Mean (time 6.0 h postdose): 49600 ng/mL
- Plasma levels of isoxicam, Mean (time 8.0 h postdose): 47400 ng/mL
- Plasma levels of isoxicam, Mean (time 12.0 h postdose): 38600 ng/mL
- Plasma levels of isoxicam, Mean (time 24.0 h postdose): 32600 ng/mL
- Plasma levels of isoxicam, Mean (time 32.0 h postdose): 28800 ng/mL
- Plasma levels of isoxicam, Mean (time 48.0 h postdose): 22600 ng/mL
- Plasma levels of isoxicam, Mean (time 72.0 h postdose): 15000 ng/mL
- Plasma levels of isoxicam, Mean (time 96.0 h postdose): 8410 ng/mL
- Plasma levels of isoxicam, Mean (time 153.5 h postdose): 2460 ng/mL
- Plasma levels of isoxicam, Mean (time 192.0 h postdose (two dogs actually 193 hours)): 1460 ng/mL
- Plasma levels of isoxicam, Mean (time 240.0 h postdose): 820 ng/mL
- mean peak plasma concentration (reached at two hours postdose, 100 mg (free acid equivalents) per oral dose, dogs): 53.9±4.0 Ilg/ml
- peak time (the final (fourth) animal, 100 mg oral): eight
- peak time (three animals of four, 100 mg oral): two

Source: EP0140492B1 (WARNER-LAMBERT COMPANY, priority 1983, dated 1985)
